Data on 24 molecules can be found in US6670365B1, “Substituted imidazo 1,2a}azines as selective inhibitors of cox-2” (Laboratorios S.A.L.V.A.T., S.A., priority 1998, dated 2003).

Some results are limits rather than exact numbers.

The target of one assay is T1, COX-1 (Homo sapiens, UniProt P23219).
T1 construct: Fresh blood was collected into sterile containers with no anticoagulants; endogenous in cells; host or cells: fresh whole blood without anticoagulants (platelet COX-1, TXB2 read-out)
The assay is described as follows: Assay for in vitro COX-1 inhibition in fresh whole blood without anticoagulants (TXB2 by EIA). The class given is cell-based. Conditions: no anticoagulants, compound 0.1 to 100 μM, 37° C. for 1 hour, TXB2 levels in plasma by EIA. The protocol: Assay for in vitro COX-1 Inhibition
Fresh blood was collected into sterile containers with no anticoagulants. Aliquots of 500 μL were immediately transferred to eppendorf tubes, preloaded with a test compound each, at final concentrations varying from 0.1 to 100 μM. The eppendorf tubes were vortexed and incubated at 37° C. for 1 hour. At the end of incubation, plasma was obtained by centrifugation and stored at −80° C. TXB2 levels in plasma were established using EIA (Cayman Chemical).

The target of the next assay is T2, COX-2 (Homo sapiens, UniProt P35354).
T2 construct: endogenous in cells; host or cells: human whole blood from volunteers, stimulated with LPS
T2 sequence (P35354 18-604): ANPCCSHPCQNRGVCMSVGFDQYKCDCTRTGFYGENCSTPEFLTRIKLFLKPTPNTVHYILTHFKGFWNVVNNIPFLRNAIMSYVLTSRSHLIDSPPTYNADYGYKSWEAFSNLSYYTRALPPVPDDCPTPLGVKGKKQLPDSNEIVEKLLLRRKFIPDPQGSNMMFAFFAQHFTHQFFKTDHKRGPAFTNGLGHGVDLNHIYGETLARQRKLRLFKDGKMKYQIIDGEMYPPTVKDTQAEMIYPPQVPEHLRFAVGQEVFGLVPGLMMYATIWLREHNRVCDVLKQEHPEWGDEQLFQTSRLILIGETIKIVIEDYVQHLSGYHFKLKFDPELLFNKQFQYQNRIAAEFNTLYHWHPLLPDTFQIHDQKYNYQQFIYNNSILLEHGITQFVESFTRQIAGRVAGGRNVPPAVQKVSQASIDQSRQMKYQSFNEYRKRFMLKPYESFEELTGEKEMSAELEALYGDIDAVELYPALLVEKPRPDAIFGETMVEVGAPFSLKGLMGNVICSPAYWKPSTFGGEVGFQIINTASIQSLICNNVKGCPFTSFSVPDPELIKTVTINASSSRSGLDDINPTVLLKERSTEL
The assay is described as follows: Assay for in vitro COX-2 inhibition in LPS-stimulated human whole blood (PGE2 by EIA). Format: cell-based. The conditions noted are these: for IC50: human whole blood, compound 0.1 to 25 μM, 15 minutes at 37° C., LPS 100 μg/mL for 24 h, PGE2 levels in plasma by EIA; for selective COX-2 inhibitory activity (COX-2 in preference to COX-1): in vitro, statement in words referring to Table 1. Here is the method:
Assay for in vitro COX-2 Inhibition
Human whole blood from volunteers with no apparent inflammatory conditions and not having taken any NSAIDs for at least 15 days prior to blood collection was used to evaluate the COX-2 inhibitory effect of the synthesized compounds. […] At the end of the incubation, the blood was centrifuged at 10.000 rpm to obtain plasma, and the samples were stored at −80° C. PGE2 levels in plasma were established using EIA (Cayman Chemical).

T1 sequence (P23219 24-599): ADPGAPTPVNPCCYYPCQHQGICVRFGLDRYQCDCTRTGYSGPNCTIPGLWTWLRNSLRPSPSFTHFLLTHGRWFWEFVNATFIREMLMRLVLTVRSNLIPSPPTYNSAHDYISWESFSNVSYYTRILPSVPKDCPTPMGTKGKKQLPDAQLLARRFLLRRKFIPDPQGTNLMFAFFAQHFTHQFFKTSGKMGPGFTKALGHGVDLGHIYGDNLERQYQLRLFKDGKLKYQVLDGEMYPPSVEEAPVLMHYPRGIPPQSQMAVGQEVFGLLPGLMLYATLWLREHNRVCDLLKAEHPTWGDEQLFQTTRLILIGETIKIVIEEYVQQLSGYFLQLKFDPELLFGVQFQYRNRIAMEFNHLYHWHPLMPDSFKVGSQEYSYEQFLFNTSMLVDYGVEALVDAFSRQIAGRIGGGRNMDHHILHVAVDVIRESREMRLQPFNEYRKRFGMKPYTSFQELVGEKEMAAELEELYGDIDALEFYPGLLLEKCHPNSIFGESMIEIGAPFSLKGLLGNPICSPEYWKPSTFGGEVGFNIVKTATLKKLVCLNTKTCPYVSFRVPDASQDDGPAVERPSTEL

Turning to “2-(3-fluorophenyl)-3-(4-aminosulfonylphenyl)imidazo[1,2a][1,2,4]triazine [Product Ihh]”, the IC50 (usually the concentration needed to halve the response being measured) on COX-1 came out at 100 µM.

Consider “2-(3-methylphenyl)-3-(4-aminosulfonylphenyl)imidazo[1,2a][1,2,4]triazine [Product Igg]”, for which the concentration for half-maximal inhibition (IC50) on COX-1 came out at 10 µM; against COX-2 it was 2.8 µM.

For “2-(4-fluorophenyl)-3-(4-methylsulfonylphenyl)imidazo[1,2a][1,2,4]triazine [Product Ibb]”, the figures for the 50% inhibitory concentration (IC50) on COX-1 and at COX-2 were 50 µM and 2.2 µM, respectively.

Consider “2-phenyl-3-(4-aminosulfonylphenyl)imidazo[1,2a][1,2,4]triazine [Product Idd]”, for which the IC50 on COX-1 was over 50 µM; against COX-2 it was 3.8 µM.

Take “2-phenyl-3-(4-methylsulfonylphenyl)imidazo[1,2a][1,2,4]triazine [Product Iaa]”: the 50% inhibitory concentration (IC50) on COX-1 turned out to be 76 µM; against COX-2, 3.1 µM.

Consider `CS(=O)(=O)c1ccc(-c2c(-c3ccccc3)nc3ncccn23)cc1` [Product Ia, 2-phenyl-3-(4-methylsulfonylphenyl)imidazo [1,2a]pyrimidine], for which the results for the IC50 against COX-1 and at COX-2 were over 50 µM and 5.5 µM, respectively.

On to `Cc1ccc(-c2nc3ncccn3c2-c2ccc(S(C)(=O)=O)cc2)cc1` [Product Ib, 2-(4-methylphenyl)-3-(4-methylsulfonylphenyl)imidazo[1,2a]pyrimidine], for which the IC50 at COX-1 is over 50 µM.

As for `CS(=O)(=O)c1ccc(-c2c(-c3ccc(F)cc3)nc3ncccn23)cc1` [Product Ic, 2-(4-fluorophenyl)-3-(4-methylsulfonylphenyl)imidazo[1,2a]pyrimidine], the IC50 against COX-1 is over 50 µM. Moreover, at COX-2, the IC50 was 2.9 µM and the “selective COX-2 inhibitory activity (COX-2 in preference to COX-1)” value (shortened to “selective COX-2 inhibitory activity”) is recorded as “specially selective COX-2 inhibitory activity”.

For `COc1ccc(-c2nc3ccccn3c2-c2ccc(S(C)(=O)=O)cc2)cc1` [Product Iccc, 2-(4-methoxyphenyl)-3-(4-methylsulfonylphenyl)imidazo[1,2a]pyridine], the values for the IC50 against COX-1 and on COX-2 were 40 µM and 3.3 µM, respectively.

Regarding `CS(=O)(=O)c1ccc(-c2c(-c3ccc(Cl)cc3)nc3ncccn23)cc1` [Product Id, 2-(4-chlorophenyl)-3-(4-methylsulfonylphenyl)imidazo[1,2a]pyrimidine], the results for the IC50 on COX-1 and on COX-2 were over 50 µM and over 10 µM, respectively.

Take `CCOc1ccc(-c2nc3ccccn3c2-c2ccc(S(C)(=O)=O)cc2)cc1` [Product Iddd, 2-(4-ethoxyphenyl)-3-(4-methylsulfonylphenyl)imidazo[1,2a]pyridine]: the IC50 stood at 80 µM against COX-1 and 3.5 µM against COX-2.

In turn, `COc1ccc(-c2nc3ncccn3c2-c2ccc(S(C)(=O)=O)cc2)cc1` [Product If, 2-(4-methoxyphenyl)-3-(4-methylsulfonylphenyl)imidazo[1,2a]pyrimidine] registered an IC50 on COX-1 of 25 µM. For the same molecule, on COX-2, the midpoint of inhibition, the IC50, lay at 1.4 µM and the “selective COX-2 inhibitory activity” value is “specially selective COX-2 inhibitory activity”.

`COc1ccc(-c2nc3ccccn3c2-c2ccc(S(C)(=O)=O)cc2)cc1C` [Product Ifff, 2-(3-methyl-4-methoxyphenyl)-3-(4-methylsulfonylphenyl)imidazo[1,2a]pyridine]: the 50% inhibitory concentration (IC50) stood at 45 µM against COX-1 and 1 µM against COX-2.

Regarding `CCOc1ccc(-c2nc3ncccn3c2-c2ccc(S(C)(=O)=O)cc2)cc1` [Product Ig, 2-(4-ethoxyphenyl)-3-(4-methylsulfonylphenyl)imidazo[1,2a]pyrimidine], on COX-2, the IC50 was 1 µM and the “selective COX-2 inhibitory activity” value is “specially selective COX-2 inhibitory activity”.

As to `Cc1ccc(-c2nc3ncccn3c2-c2ccc(S(C)(=O)=O)cc2)cc1C` [Product Ih, 2-(3,4-dimethylphenyl)-3-(4-methylsulfonylphenyl)imidazo[1,2a]pyrimidine], the half-inhibitory concentration (IC50) against COX-1 is over 50 µM; against COX-2 it was 2.8 µM.

For the molecule `COc1ccc(-c2nc3ccccn3c2-c2ccc(S(C)(=O)=O)cc2)cc1Cl` [Product Ihhh, 2-(3-chloro-4-methoxyphenyl)-3-(4-methylsulfonylphenyl)imidazo[1,2a]pyridine], the values for the half-maximal inhibitory concentration (IC50) against COX-1 and against COX-2 were 82 µM and 6.8 µM, respectively.

`COc1ccc(-c2nc3ncccn3c2-c2ccc(S(C)(=O)=O)cc2)cc1C` [Product Ii, 2-(3-methyl-4-methoxyphenyl)-3-(4-methylsulfonylphenyl)imidazo[1,2a]pyrimidine]: the half-inhibitory concentration (IC50) on COX-1 turned out to be 30 µM; at COX-2, 2.2 µM.

On to `COc1ccc(-c2nc3ncccn3c2-c2ccc(S(C)(=O)=O)cc2)cc1Cl` [Product Ik, 2-(3-chloro-4-methoxyphenyl)-3-(4-methylsulfonylphenyl)imidazo[1,2a]pyrimidine], for which the results for the IC50 at COX-1 and at COX-2 were 61 µM and 3.9 µM, respectively.

As to `Cc1ccn2c(-c3ccc(S(C)(=O)=O)cc3)c(-c3ccc(C)c(C)c3)nc2n1` [Product In, 7-methyl-2-(3,4-dimethylphenyl)-3-(4-methylsulfonylphenyl)imidazo[1,2a]pyrimidine], the IC50 at COX-1 came to 2 µM; at COX-2, 4.2 µM.

For the molecule `Cc1ccccc1-c1nc2ccccn2c1-c1ccc(S(N)(=O)=O)cc1` [Product Innn, 2-(2-methylphenyl)-3-(4-aminosulfonylphenyl)imidazo[1,2a]pyridine], the half-maximal inhibitory concentration (IC50) on COX-1 was over 100 µM; on COX-2, over 5 µM.

Take `Cc1ccc(-c2nc3ncccn3c2-c2ccc(S(N)(=O)=O)cc2)cc1` [Product Io, 2-(4-methylphenyl)-3-(4-aminosulfonylphenyl)imidazo[1,2a]pyrimidine]: the IC50 was over 50 µM against COX-1 and 4.5 µM against COX-2.

At COX-2, `Cc1cccc(-c2nc3ccccn3c2-c2ccc(S(N)(=O)=O)cc2)c1` [Product Ippp, 2-(3-methylphenyl)-3-(4-aminosulfonylphenyl)imidazo[1,2a]pyridine] had a half-inhibitory concentration (IC50) of 3.1 µM.

In the case of `NS(=O)(=O)c1ccc(-c2c(-c3cccc(F)c3)nc3ccccn23)cc1` [Product Iqqq, 2-(3-fluorophenyl)-3-(4-aminosulfonylphenyl)imidazo[1,2a]pyridine], the IC50 on COX-1 is over 100 µM; on COX-2 it was over 10 µM.

Take `COc1ccc(-c2nc3ccccn3c2-c2ccc(S(N)(=O)=O)cc2)cc1C` [Product Iuuu, 2-(3-methyl-4-methoxyphenyl)-3-(4-aminosulfonylphenyl)imidazo[1,2a]pyridine]: the results for the IC50 against COX-1 and on COX-2 were 25 µM and 1.7 µM, respectively.
